Results from the NIST ThermoML archive (doi:10.1021/je100835n).
Numbers after ± are expanded uncertainties.

Conditions: Liquid, Gas chromatography

| SMILES | vapor or sublimation pressure (308.15 K) | vapor or sublimation pressure (318.15 K) | vapor or sublimation pressure (328.15 K) | vapor or sublimation pressure (338.15 K) | vapor or sublimation pressure (348.15 K) | vapor or sublimation pressure (358.15 K) | vapor or sublimation pressure (368.15 K) | vapor or sublimation pressure (378.15 K) | vapor or sublimation pressure (388.15 K) | vapor or sublimation pressure (398.15 K) | vapor or sublimation pressure (408.15 K) | vapor or sublimation pressure (418.15 K) | vapor or sublimation pressure (428.15 K) | vapor or sublimation pressure (438.15 K) |
| --- | --- | --- | --- | --- | --- | --- | --- | --- | --- | --- | --- | --- | --- | --- |
| C[Si]1(C)O[Si](C)(C)O[Si](C)(C)O[Si](C)(C)O[Si](C)(C)O1 [decamethylcyclopentasiloxane] | 0.04458 ± 0.0095 kPa | 0.09293 ± 0.02 kPa | 0.1853 ± 0.039 kPa | 0.3545 ± 0.075 kPa | 0.6537 ± 0.14 kPa | 1.165 ± 0.25 kPa | 2.011 ± 0.43 kPa | – | – | – | – | – | – | – |
| C[Si](C)(C)O[Si](C)(C)O[Si](C)(C)O[Si](C)(C)O[Si](C)(C)O[Si](C)(C)O[Si](C)(C)O[Si](C)(C)O[Si](C)(C)O[Si](C)(C)C [docosamethyldecasiloxane] | – | – | – | – | – | – | 0.0007152 ± 0.00015 kPa | 0.001861 ± 0.00039 kPa | 0.00461 ± 0.00098 kPa | 0.01091 ± 0.0023 kPa | 0.02475 ± 0.0053 kPa | 0.054 ± 0.011 kPa | 0.1136 ± 0.024 kPa | 0.231 ± 0.049 kPa |
| C[Si]1(C)O[Si](C)(C)O[Si](C)(C)O[Si](C)(C)O[Si](C)(C)O[Si](C)(C)O1 [dodecamethylcyclohexasiloxane] | – | – | – | 0.04948 ± 0.01 kPa | 0.09584 ± 0.02 kPa | 0.1789 ± 0.038 kPa | 0.3228 ± 0.069 kPa | 0.5646 ± 0.12 kPa | 0.9595 ± 0.2 kPa | 1.588 ± 0.34 kPa | 2.563 ± 0.54 kPa | 4.044 ± 0.86 kPa | – | – |
| C[Si](C)(C)O[Si](C)(C)O[Si](C)(C)O[Si](C)(C)O[Si](C)(C)C [dodecamethylpentasiloxane] | – | – | – | 0.09498 ± 0.02 kPa | 0.1719 ± 0.036 kPa | 0.3011 ± 0.064 kPa | 0.5114 ± 0.11 kPa | 0.8448 ± 0.18 kPa | 1.36 ± 0.29 kPa | 2.137 ± 0.45 kPa | 3.284 ± 0.7 kPa | – | – | – |
| C[Si](C)(C)O[Si](C)(C)O[Si](C)(C)O[Si](C)(C)O[Si](C)(C)O[Si](C)(C)O[Si](C)(C)O[Si](C)(C)O[Si](C)(C)C [eicosamethylnonasiloxane] | – | – | – | – | 0.0004156 ± 8.8e-05 kPa | 0.001098 ± 0.00023 kPa | 0.002752 ± 0.00058 kPa | 0.006569 ± 0.0014 kPa | 0.015 ± 0.0032 kPa | 0.03284 ± 0.007 kPa | 0.0692 ± 0.015 kPa | 0.1407 ± 0.03 kPa | 0.2769 ± 0.059 kPa | 0.5281 ± 0.11 kPa |
| C[Si](C)(C)O[Si](C)(C)O[Si](C)(C)O[Si](C)(C)O[Si](C)(C)O[Si](C)(C)O[Si](C)(C)O[Si](C)(C)O[Si](C)(C)O[Si](C)(C)O[Si](C)(C)O[Si](C)(C)C [hexacosamethyldodecasiloxane] | – | – | – | – | – | – | – | – | 0.0004593 ± 9.7e-05 kPa | 0.001256 ± 0.00027 kPa | 0.00327 ± 0.00069 kPa | 0.008134 ± 0.0017 kPa | 0.01939 ± 0.0041 kPa | 0.04441 ± 0.0094 kPa |
| C[Si]1(C)O[Si](C)(C)O[Si](C)(C)O[Si](C)(C)O[Si](C)(C)O[Si](C)(C)O[Si](C)(C)O[Si](C)(C)O1 [hexadecamethylcyclooctasiloxane] | – | – | – | 0.002101 ± 0.00045 kPa | 0.004912 ± 0.001 kPa | 0.01095 ± 0.0023 kPa | 0.02337 ± 0.005 kPa | 0.04791 ± 0.01 kPa | 0.09466 ± 0.02 kPa | 0.1807 ± 0.038 kPa | 0.3344 ± 0.071 kPa | 0.6006 ± 0.13 kPa | – | – |
| C[Si](C)(C)O[Si](C)(C)O[Si](C)(C)O[Si](C)(C)O[Si](C)(C)O[Si](C)(C)O[Si](C)(C)C [hexadecamethylheptasiloxane] | – | – | – | 0.003586 ± 0.00076 kPa | 0.008232 ± 0.0017 kPa | 0.01804 ± 0.0038 kPa | 0.03789 ± 0.008 kPa | 0.07651 ± 0.016 kPa | 0.149 ± 0.032 kPa | 0.2806 ± 0.06 kPa | 0.5124 ± 0.11 kPa | 0.909 ± 0.19 kPa | 1.57 ± 0.33 kPa | 2.645 ± 0.56 kPa |
| C[Si]1(C)O[Si](C)(C)O[Si](C)(C)O[Si](C)(C)O[Si](C)(C)O[Si](C)(C)O[Si](C)(C)O[Si](C)(C)O[Si](C)(C)O[Si](C)(C)O1 [icosamethylcyclodecasiloxane] | – | – | – | – | – | 0.0008201 ± 0.00017 kPa | 0.002003 ± 0.00042 kPa | 0.004666 ± 0.00099 kPa | 0.01041 ± 0.0022 kPa | 0.02229 ± 0.0047 kPa | 0.046 ± 0.0098 kPa | 0.09169 ± 0.019 kPa | – | – |
| C[Si](C)(C)O[Si](C)(C)O[Si](C)(C)O[Si](C)(C)O[Si](C)(C)O[Si](C)(C)O[Si](C)(C)O[Si](C)(C)O[Si](C)(C)O[Si](C)(C)O[Si](C)(C)O[Si](C)(C)O[Si](C)(C)C [octacosamethyltridecasiloxane] | – | – | – | – | – | – | – | – | – | 0.0004326 ± 9.2e-05 kPa | 0.001205 ± 0.00026 kPa | 0.003194 ± 0.00068 kPa | 0.008092 ± 0.0017 kPa | 0.01965 ± 0.0042 kPa |
| C[Si]1(C)O[Si](C)(C)O[Si](C)(C)O[Si](C)(C)O[Si](C)(C)O[Si](C)(C)O[Si](C)(C)O[Si](C)(C)O[Si](C)(C)O1 [octadecamethylcyclononasiloxane] | – | – | – | 0.0004734 ± 0.0001 kPa | 0.0012 ± 0.00025 kPa | 0.002888 ± 0.00061 kPa | 0.006628 ± 0.0014 kPa | 0.01455 ± 0.0031 kPa | 0.03069 ± 0.0065 kPa | 0.06234 ± 0.013 kPa | 0.1223 ± 0.026 kPa | 0.2323 ± 0.049 kPa | – | – |
| C[Si](C)(C)O[Si](C)(C)O[Si](C)(C)O[Si](C)(C)O[Si](C)(C)O[Si](C)(C)O[Si](C)(C)O[Si](C)(C)C [octadecamethyloctasiloxane] | – | – | – | 0.0007271 ± 0.00015 kPa | 0.001846 ± 0.00039 kPa | 0.004449 ± 0.00094 kPa | 0.01022 ± 0.0022 kPa | 0.02248 ± 0.0048 kPa | 0.04747 ± 0.01 kPa | 0.09653 ± 0.02 kPa | 0.1896 ± 0.04 kPa | 0.3605 ± 0.077 kPa | 0.6654 ± 0.14 kPa | 1.194 ± 0.25 kPa |
| C[Si]1(C)O[Si](C)(C)O[Si](C)(C)O[Si](C)(C)O1 [octamethylcyclotetrasiloxane] | 0.2359 ± 0.05 kPa | 0.4269 ± 0.091 kPa | 0.7452 ± 0.16 kPa | 1.259 ± 0.27 kPa | 2.063 ± 0.44 kPa | 3.289 ± 0.7 kPa | 5.113 ± 1.1 kPa | – | – | – | – | – | – | – |
| C[Si](C)(C)O[Si](C)(C)O[Si](C)(C)O[Si](C)(C)O[Si](C)(C)O[Si](C)(C)O[Si](C)(C)O[Si](C)(C)O[Si](C)(C)O[Si](C)(C)O[Si](C)(C)C [tetracosamethylundecasiloxane] | – | – | – | – | – | – | – | 0.0005391 ± 0.00011 kPa | 0.001446 ± 0.00031 kPa | 0.003689 ± 0.00078 kPa | 0.008993 ± 0.0019 kPa | 0.02101 ± 0.0045 kPa | 0.04716 ± 0.01 kPa | 0.102 ± 0.022 kPa |
| C[Si]1(C)O[Si](C)(C)O[Si](C)(C)O[Si](C)(C)O[Si](C)(C)O[Si](C)(C)O[Si](C)(C)O1 [tetradecamethylcycloheptasiloxane] | – | – | – | 0.01 ± 0.0021 kPa | 0.0213 ± 0.0045 kPa | 0.04349 ± 0.0092 kPa | 0.08542 ± 0.018 kPa | 0.1619 ± 0.034 kPa | 0.2968 ± 0.063 kPa | 0.528 ± 0.11 kPa | 0.9129 ± 0.19 kPa | 1.538 ± 0.33 kPa | – | – |
| C[Si](C)(C)O[Si](C)(C)O[Si](C)(C)O[Si](C)(C)O[Si](C)(C)O[Si](C)(C)C [tetradecamethylhexasiloxane] | – | – | – | 0.01845 ± 0.0039 kPa | 0.03767 ± 0.008 kPa | 0.07392 ± 0.016 kPa | 0.1398 ± 0.03 kPa | 0.2557 ± 0.054 kPa | 0.4533 ± 0.096 kPa | 0.7809 ± 0.17 kPa | 1.31 ± 0.28 kPa | 2.143 ± 0.45 kPa | 3.427 ± 0.73 kPa | 5.364 ± 1.1 kPa |
